Measured values published in patent US20230338250A1, “Compositions Comprising One or More (Bio)-Alkanediols with Active Ingredients” (Symrise AG, priority 2020, published 2023).

Assay: Example 1.2 solubility improvement for Hydrocortisone with 1,2-alkanediols: visual appearance
Assay type: physicochemical
Details: 0.2 % Hydrocortisone; 1.0 % 1,2-alkanediol; after 3 days 23° C.
Protocol: Production method: A premix B was prepared by mixing solvent, solubilizer and diol. Hydrocortisone was added. The mixture was heated to 70° C. to solve the active component while stirring with a magnetic stirrer. The mixture was stirred for further 5 minutes at 70° C. Water was added and the mixture was cooled while stirring (10 min).
The visual appearance of the sample solutions was evaluated according to the following scale:
The images of the sample solutions A (containing 1,2-pentanediol), B (containing 1,2-hexanediol), C (containing 1,2-heptanediol) and D (containing 1,2-octanediol) are shown in FIG. 3.

For `CCCCCC(O)CO` (stereo not drawn) [1,2-heptanediol], the “crystallization/sedimentation, transparency, turbidity compared between samples” value was “better solubility improving properties”.

Assay: Example 2 solubility of alkanediols in water (maximum water solubility, visual observation)
Assay type: physicochemical
Details: assessed at ambient temperature after 24 h storage at 5° C.
Source text: The water solubility of a substance is the saturation mass concentration of the substance in water at a given temperature. The determination of the solubility in water relates to essentially pure substances which are stable in water and not volatile.
For the determination of the maximum water solubility of an alkanediol, water and different concentrations of the respective alkanediol were blended by stirring. […] The determination of whether the alkanediol has dissolved in water is based entirely on visual observation.

Point of comparison: `CCCCCCC(O)CO` (stereo not drawn) [Hydrolite® 8, 1,2-octanediol], “Maximum solubility in water (% by weight)” value 0.5 % by weight. Against it:
- CCCCCC(O)CO (stereo not drawn) [1,2-heptanediol] — higher, 2.5 % by weight
- CCCCCCCC(O)CO (stereo not drawn) [1,2-nonanediol] — lower, 0.1 % by weight
- CCCCC(O)C(C)O (stereo not drawn) [2,3-heptanediol] — higher, 3.6 % by weight
- CCCCCCC(O)C(C)O (stereo not drawn) [2,3-nonanediol] — lower, 0.3 % by weight
- CCCCCC(O)C(C)O (stereo not drawn) [2,3-octanediol] — higher, 1.5 % by weight
- CCCC(O)CO (stereo not drawn) [Hydrolite® 5 green, 1,2-pentanediol] — higher, 50 % by weight
- CCCCC(O)CO (stereo not drawn) [Hydrolite® 6, 1,2-hexanediol] — higher, 50 % by weight
